For two compounds, Kd results are on record in patent US20250243172A1, “NLRP3 INFLAMMASOME INHIBITORS AND COMPOSITIONS AND USES THEREOF” (VIRGINIA COMMONWEALTH UNIVERSITY, priority 2022, published 2025).

The test addresses human recombinant NLRP3 protein. As to the kind of experiment: Binding of NSIs to recombinant NLRP3 protein by microscale thermophoresis (Monolith NT.Automated). The settings on record: MST; His-NLRP3 labeled with RED-tris-NTA dye, 40 min incubation in PBS-T; duplicate reads. As for the experimental part: Monolith NT. Automated instrument was used to measure the Kd value. A range of concentrations of NSIs were incubated and His-NLRP3 pre-labeled with RED-tris-NTA dye kit (SKU: MO-L018) for 40 min in PBS-T assay buffer (1×PBS with 0.05% Tween® 20). The samples were loaded into NanoTemper® glass capillaries and series of ligand-induced changes in thermophoresis curves were gained using an Excitation power of 80% and a MST power of high. Kd values were calculated using the mass action equation with NanoTemper software from duplicate reads of an experiment.
Table 1 provides exemplary binding affinities of NSIs to human recombinant NLRP3 protein.
On the technique in general: Microscale thermophoresis detects binding through changes in fluorescence in a small temperature gradient.

The Kd is the equilibrium constant for the complex coming apart. With `COc1ccc(Cl)cc1Cn1cc(-c2ccc(C(=O)N3CCC3)cc2)nn1` [YM-III-11], the Kd came to 3000 nM.

Consider `COc1ccc(Cl)cc1Cn1cc(C(=O)N2CC(F)(F)C2)nn1` [YM-III-12], for which the Kd was found to be 980 nM.
